# Where two headings read alike, the source gives them in different places.
# What was measured:
# HCT116 = test: Cell growth assay, HCT116 (CellTiter-Blue); format: cell-based; details: Homo sapiens
# Description: (§1) Cell Culture. All media was supplemented with 100 U/mL penicillin and 100 μg/mL streptomycin. Human cancer cell lines were grown in the following media: MV4; 11, RS4; 11, K562, HEL, MOLM-14, MEG-01 in RPMI-1640, 10% FBS; SET-2 in RPMI-1640, 20% FBS; UKE-1 in RPMI-1640, 10% FBS, 10% horse serum and 1 μM hydrocortisone; SKNO-1 and TF-1 in RPMI-1640, 10% FBS, and 10 or 2 ng/mL GM-CSF, respectively; HaCaT in DMEM, 10% FBS; and HCT116 in McCoy's 5 A, 10% FBS (proliferation assay) or DMEM, 10% FBS (gene expression study). HepG2, MV4;11, RS4;11, MEG-01, TF-1, HCT116 and K562 were from ATCC. SKNO-1 was from DSMZ. HEL, UKE-1, and SET-2 were provided by Ross L. Levine and HaCaT, MV4;11-mCLP, and MOLM-14 by Van Wilson, Andrew L. Kung, and Scott A. Armstrong, respectively. MOLM-14 cells were authenticated by STR profiling and flow cytometry and all cell lines were routinely tested and found to be negative for mycoplasma.
# RS4;11 = test: Cell growth assay, RS4;11; format: cell-based; details: Homo sapiens, RS4-11, 240 h; CA, after 10 days; read-out: Mean GI50 (nM), RS4;11
# Description: as §1
# [1] = biological target: T1, CDK12 in MOLM-14 cell lysate (Homo sapiens, UniProt Q9NYV4); test: Native kinase capture immunoblot, CDK12; format: binding
# T1 construct: endogenous in cells; host or cells: MOLM-14 cell lysate
# T1 sequence (Q9NYV4 whole entry): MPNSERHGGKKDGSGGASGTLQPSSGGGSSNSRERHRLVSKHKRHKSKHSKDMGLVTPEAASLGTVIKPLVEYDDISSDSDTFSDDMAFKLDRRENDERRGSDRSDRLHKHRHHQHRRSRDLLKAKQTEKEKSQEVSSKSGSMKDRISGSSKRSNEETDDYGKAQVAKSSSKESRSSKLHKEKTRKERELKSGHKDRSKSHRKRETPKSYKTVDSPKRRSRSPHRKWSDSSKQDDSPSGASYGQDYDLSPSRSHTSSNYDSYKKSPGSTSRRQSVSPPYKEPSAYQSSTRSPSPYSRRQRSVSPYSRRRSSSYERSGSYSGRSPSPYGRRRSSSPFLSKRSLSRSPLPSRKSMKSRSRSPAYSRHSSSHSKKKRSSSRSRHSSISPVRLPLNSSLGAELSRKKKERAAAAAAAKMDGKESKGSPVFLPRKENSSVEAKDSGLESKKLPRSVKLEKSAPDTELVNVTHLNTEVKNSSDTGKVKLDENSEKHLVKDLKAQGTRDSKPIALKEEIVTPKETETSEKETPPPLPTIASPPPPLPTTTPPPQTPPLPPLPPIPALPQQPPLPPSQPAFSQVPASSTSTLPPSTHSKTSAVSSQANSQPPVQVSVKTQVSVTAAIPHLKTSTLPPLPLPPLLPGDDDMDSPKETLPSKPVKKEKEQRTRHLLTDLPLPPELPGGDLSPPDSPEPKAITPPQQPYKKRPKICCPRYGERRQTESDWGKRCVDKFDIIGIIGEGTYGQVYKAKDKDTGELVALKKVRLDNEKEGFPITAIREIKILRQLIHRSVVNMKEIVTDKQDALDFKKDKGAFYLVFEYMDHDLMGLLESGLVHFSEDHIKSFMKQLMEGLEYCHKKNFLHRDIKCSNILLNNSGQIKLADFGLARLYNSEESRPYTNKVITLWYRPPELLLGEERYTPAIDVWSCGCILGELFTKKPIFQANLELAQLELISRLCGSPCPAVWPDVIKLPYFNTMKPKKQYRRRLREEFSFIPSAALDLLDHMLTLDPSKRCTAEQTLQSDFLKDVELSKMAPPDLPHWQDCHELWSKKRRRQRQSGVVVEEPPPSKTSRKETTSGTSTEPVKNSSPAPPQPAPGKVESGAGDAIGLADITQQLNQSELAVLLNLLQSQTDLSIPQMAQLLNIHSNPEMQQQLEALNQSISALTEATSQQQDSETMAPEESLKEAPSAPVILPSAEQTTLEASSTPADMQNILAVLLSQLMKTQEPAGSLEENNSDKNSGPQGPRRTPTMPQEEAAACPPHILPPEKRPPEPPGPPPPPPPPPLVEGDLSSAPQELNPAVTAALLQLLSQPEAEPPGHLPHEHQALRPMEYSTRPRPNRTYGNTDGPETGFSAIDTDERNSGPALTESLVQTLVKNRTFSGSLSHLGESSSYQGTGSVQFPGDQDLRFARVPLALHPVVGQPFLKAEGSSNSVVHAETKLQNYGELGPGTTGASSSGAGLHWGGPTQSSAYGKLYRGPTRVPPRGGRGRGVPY
# T1 sequence (O75909 whole entry partner): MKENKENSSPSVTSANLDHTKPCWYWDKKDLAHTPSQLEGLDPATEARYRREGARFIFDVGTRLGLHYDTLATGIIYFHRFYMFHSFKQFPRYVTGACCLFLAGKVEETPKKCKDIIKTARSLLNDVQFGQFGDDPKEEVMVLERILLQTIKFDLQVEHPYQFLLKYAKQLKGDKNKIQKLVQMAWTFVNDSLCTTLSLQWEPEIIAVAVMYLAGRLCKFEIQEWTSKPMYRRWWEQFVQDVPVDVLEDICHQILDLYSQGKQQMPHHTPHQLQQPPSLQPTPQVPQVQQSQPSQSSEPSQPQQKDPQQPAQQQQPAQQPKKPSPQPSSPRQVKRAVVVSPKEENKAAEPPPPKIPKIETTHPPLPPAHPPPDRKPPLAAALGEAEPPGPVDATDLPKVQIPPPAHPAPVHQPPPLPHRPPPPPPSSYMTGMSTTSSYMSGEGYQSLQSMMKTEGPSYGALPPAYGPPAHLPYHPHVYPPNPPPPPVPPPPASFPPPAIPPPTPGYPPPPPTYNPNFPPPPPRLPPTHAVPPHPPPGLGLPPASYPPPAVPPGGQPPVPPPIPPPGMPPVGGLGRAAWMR
# Description: (§2) Native Kinase Capture Immunoblot and Native Kinome-Wide Profiling. […] Experiment was performed twice with one immunoblot shown.
# SET-2 = test: Cell growth assay, SET-2; format: cell-based; details: Homo sapiens
# Description: as §1
# [2] = tested on: STAT1 S727 phosphorylation in NK cells; test: STAT1 pS727 inhibition in NK cells in vivo; details: C57BL/6 mice, NK cells from spleen
# [3] = tested on: Smad2 T220 and Smad3 T179 phosphorylation; test: TGF-β-stimulated Smad2 T220 and Smad3 T179 phosphorylation immunoblot; format: cell-based, human; details: HaCaT cells
# Description: Kinase Assays. Data was quantified with ImageJ and plotted and fitted with GraphPad Prism 6.0. For STAT1 transactivation domain (TAD), 750 ng of GST-STAT1 TAD (residues 639-750) was incubated with ˜50 ng recombinant CDK8 module at 30° C. for 8 min in kinase buffer (25 mM Tris pH 8, 2 mM DTT, 100 μM cold ATP, 100 mM KCl, 10 mM MgCl2 and 2.5 μCi [γ-^32P] ATP (Perkin Elmer) per reaction). […] 12% SDS-PAGE gels were subsequently silver stained, exposed for 18 h on a Phosphor Screen and imaged (Typhoon 9400, GE Life Sciences). For pol II CTD, 400 ng of GST-CTD (murine sequence) was incubated with ˜40 ng recombinant CDK8 module, 25 ng TFIIH, or 40 ng P-TEFb at 30° C. for 60 min in kinase buffer. Kinase amounts were chosen to give similar total pol II CTD signal. 9% SDS-PAGE gels were silver stained and exposed as above. In vitro FLAG-CDK8 kinase assays used ˜40 ng kinase and 500 ng GST-CTD. For STAT1 or Smad2/3, cells were treated with compound for 1 h followed by IFN-γ or TGF-β1 for 1 h, then washed twice with cold PBS, and lysed (RIPA buffer with inhibitors R0278, P8340, P0044, P5762 Sigma-Aldrich). Standard immunoblotting was then performed with one immunoblot shown. All experiments were performed twice.
# SKNO-1 = test: Cell growth assay, SKNO-1; format: cell-based; details: Homo sapiens, SKNO-1, 240 h
# Description: (§3) All media was supplemented with 100 U/mL penicillin and 100 μg/mL streptomycin. Human cancer cell lines were grown in the following media: MV4; 11, K562, MOLM-14 in RPMI-1640, 10% FBS; SKNO-1 in RPMI-1640, 10% FBS, and 10 ng/mL GM-CSF; MV4;11 and K562 were from ATCC. SKNO-1 was from DSMZ.
# as §1
# UKE-1 = test: Cell growth assay, UKE-1; format: cell-based; details: Homo sapiens, UKE1, 240 h; CA, after 10 days
# Description: as §1
# [4] = biological target: T2, GSG2 in MOLM-14 cell lysate (Homo sapiens, UniProt Q8TF76); test: Native kinase capture immunoblot, GSG2; format: binding
# T2 construct: endogenous in cells; host or cells: MOLM-14 cell lysate
# T2 sequence (Q8TF76 whole entry): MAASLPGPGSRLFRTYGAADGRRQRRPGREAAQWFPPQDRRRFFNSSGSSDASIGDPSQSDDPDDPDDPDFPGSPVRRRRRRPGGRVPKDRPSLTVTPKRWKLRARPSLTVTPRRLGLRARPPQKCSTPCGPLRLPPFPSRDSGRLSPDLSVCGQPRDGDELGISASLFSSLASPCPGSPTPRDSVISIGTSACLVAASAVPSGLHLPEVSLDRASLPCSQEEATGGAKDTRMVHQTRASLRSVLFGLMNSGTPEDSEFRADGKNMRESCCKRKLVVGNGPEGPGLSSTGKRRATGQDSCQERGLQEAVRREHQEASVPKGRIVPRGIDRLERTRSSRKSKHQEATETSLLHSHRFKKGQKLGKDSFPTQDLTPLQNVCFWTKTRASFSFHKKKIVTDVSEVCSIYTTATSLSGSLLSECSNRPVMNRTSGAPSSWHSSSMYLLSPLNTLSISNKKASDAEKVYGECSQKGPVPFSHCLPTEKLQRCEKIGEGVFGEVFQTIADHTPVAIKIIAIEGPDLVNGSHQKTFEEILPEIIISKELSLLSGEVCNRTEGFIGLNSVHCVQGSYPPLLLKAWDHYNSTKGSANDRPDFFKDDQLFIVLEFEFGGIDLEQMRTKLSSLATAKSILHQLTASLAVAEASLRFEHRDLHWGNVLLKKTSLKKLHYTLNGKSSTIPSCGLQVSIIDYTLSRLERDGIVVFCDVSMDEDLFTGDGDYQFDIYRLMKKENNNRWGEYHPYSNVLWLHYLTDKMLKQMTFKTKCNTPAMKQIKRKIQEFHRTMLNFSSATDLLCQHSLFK
# Description: as §2
# MOLM-14 = test: Cell growth assay, MOLM-14; format: cell-based; details: Homo sapiens
# Description: as §3, §1
# [5] = biological target: T3, ROCK1 in MOLM-14 cell lysate (Homo sapiens, UniProt Q13464); test: Native kinase capture immunoblot, ROCK1; format: binding
# T3 construct: endogenous in cells; host or cells: MOLM-14 cell lysate
# T3 sequence (Q13464 whole entry): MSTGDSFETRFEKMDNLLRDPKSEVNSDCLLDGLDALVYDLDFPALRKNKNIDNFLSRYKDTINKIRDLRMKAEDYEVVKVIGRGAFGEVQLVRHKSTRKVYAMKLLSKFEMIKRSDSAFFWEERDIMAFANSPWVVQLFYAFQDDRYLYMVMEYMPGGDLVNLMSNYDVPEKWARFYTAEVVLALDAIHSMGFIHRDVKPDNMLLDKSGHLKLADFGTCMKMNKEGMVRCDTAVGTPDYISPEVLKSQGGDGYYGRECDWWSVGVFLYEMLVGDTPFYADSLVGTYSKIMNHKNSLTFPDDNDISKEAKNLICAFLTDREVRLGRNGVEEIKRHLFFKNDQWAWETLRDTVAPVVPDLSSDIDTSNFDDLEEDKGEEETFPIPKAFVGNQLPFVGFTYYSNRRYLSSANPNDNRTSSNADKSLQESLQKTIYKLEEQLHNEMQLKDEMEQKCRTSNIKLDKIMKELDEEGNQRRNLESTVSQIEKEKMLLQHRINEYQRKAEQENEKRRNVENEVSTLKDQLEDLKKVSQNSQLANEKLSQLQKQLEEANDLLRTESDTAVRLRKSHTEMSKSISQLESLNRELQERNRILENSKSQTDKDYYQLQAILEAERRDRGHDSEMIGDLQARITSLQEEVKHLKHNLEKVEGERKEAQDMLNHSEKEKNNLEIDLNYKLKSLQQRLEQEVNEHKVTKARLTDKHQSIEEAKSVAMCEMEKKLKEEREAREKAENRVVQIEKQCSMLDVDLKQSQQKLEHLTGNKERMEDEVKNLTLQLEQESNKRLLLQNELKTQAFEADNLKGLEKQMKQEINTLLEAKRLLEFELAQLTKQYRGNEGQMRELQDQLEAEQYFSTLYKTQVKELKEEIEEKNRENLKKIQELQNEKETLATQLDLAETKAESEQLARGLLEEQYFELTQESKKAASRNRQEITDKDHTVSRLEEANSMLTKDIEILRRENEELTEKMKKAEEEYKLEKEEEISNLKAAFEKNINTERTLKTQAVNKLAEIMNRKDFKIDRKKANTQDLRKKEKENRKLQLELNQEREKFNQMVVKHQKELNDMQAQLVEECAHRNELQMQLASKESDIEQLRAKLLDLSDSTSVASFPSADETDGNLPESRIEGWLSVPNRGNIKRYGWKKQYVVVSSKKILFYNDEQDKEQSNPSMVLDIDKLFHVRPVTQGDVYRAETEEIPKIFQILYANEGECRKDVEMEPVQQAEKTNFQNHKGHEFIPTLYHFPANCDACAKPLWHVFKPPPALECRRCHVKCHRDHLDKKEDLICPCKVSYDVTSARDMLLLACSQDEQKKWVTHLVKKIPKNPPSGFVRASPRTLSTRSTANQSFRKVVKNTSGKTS
# Description: as §2
smiles,measurement,setting,value
"CN(C)[C@H]1C[C@@]23CC[C@@]4(O2)C(=CC[C@@]2(C)[C@@H](c5ccc6ccncc6c5)CC[C@H]24)C=C3[C@@H](O)[C@@H]1O [CA, cortistatin A]",GI50,"HCT116; HCT-116, 168 h, after 7 days, read-out: Mean GI50 (nM), HCT116",> 1000 nM
same,GI50,"HCT116; HCT-116, Table 5, read-out: GI50 (nM), HCT116",> 1000 nM
same,GI50,RS4;11,3 nM
same,binding of CDK12 (no binding at up to),[1],> 2500 nM
same,GI50,"SET-2; SET-2, 240 h, CA, after 10 days, read-out: Mean GI50 (nM), SET-2",4 nM
same,GI50,"SET-2; SET-2, Table 5, read-out: GI50 (nM), SET2",4 nM
same,STAT1 S727 phosphorylation in NK cells,[2],dose-dependent reduction
same,inhibition of Smad2 T220 and Smad3 T179 phosphorylation,[3],dose-dependently inhibited
same,GI50,"SKNO-1; CA, after 10 days, read-out: Mean GI50 (nM), SKNO-1",1 nM
same,GI50,SKNO-1; read-out: SKNO-1 GI50 day 10,< 0.4 nM
same,GI50,UKE-1,7 nM
same,binding of GSG2 (no binding at up to),[4],> 2500 nM
same,GI50,"MOLM-14; MOLM-14, 240 h, CA, after 10 days, read-out: Mean GI50 (nM), MOLM-14",5 nM
same,GI50,"MOLM-14; MOLM-14, 240 h, read-out: MOLM14 GI50 day 10",5 nM
same,GI50,"MOLM-14; MOLM-14, Table 5, read-out: GI50 (nM), MOLM-14",5 nM
same,binding of ROCK1 (no binding up to),[5],> 2500 nM
